Tests used:
[1] = biological target: T1, truncated PFA0210c (Trunc.) (Plasmodium falciparum, UniProt Q8I298); assay: […]-phosphatidylcholine transfer from donor to acceptor vesicles; assay type: biochemical; conditions: pH 7.4, 37 °C, 30 min; 25 μg/ml protein; labelled compound (trace in phosphatidylcholine vesicles)
T1 construct: gene PF3D7_0104200; residues 144-418 (C-terminal 48 residues removed); N-terminal MBP and C-terminal His6 kept; E. coli BL21(DE3)

[2] = biological target: T2, PFA0210c (full-length, FL) (Plasmodium falciparum, UniProt Q8I298); assay: as above; assay type: biochemical; conditions: pH 7.4, 37 °C, 30 min; 25 μg/ml protein; labelled compound (trace in phosphatidylcholine vesicles)
T2 construct: gene PF3D7_0104200; residues 144-466 (N-terminal region omitted, START domain plus whole C-terminal extension); N-terminal MBP and C-terminal His6 kept; E. coli BL21(DE3); monomeric SEC fractions; strain only from the locus tag and parasite line
T2 sequence (Q8I298 144-466): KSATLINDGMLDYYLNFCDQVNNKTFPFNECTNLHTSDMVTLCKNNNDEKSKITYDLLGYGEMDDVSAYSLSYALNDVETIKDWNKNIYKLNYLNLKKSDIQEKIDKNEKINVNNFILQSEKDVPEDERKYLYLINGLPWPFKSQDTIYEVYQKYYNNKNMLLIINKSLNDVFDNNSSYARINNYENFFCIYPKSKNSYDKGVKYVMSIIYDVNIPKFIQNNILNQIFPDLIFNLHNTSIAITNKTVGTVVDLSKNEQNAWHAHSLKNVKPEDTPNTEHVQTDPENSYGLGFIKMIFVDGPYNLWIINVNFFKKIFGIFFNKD

## CCCCCCCCCCCCCCCC(=O)OC[C@H](COP(=O)([O-])OCC[N+](C)(C)C)OC(=O)CCCCCCCCCCCCCCC [L-α-dipalmitoyl-phosphatidylcholine]
[1]
  phospholipid transfer activity: All the truncated proteins showed higher phospholipid transfer activity than the full-length protein
[2]
  phospholipid transfer activity: measures the transfer of radiolabeled phosphatidylcholine from a small population of donor vesicles
